Test results taken from publication PMC8509773, “3-Pyridinylidene Derivatives of Chemically Modified Lupane and Ursane Triterpenes as Promising Anticancer Agents by Targeting Apoptosis” (International Journal of Molecular Sciences, 2021).

Experiments:
Experiment in all cases: NCI-60 SRB screening (one-dose and five-dose)
Type in all cases: cell-based, human
786-0 = settings: 48 h; for Growth Percent: 786-0, 10 μM
Method: (§1) The compounds were added at a single concentration and the cell cultures were incubated for 48 h. The end point determinations were made with a protein binding dye, sulforhodamine B (SRB). […] The percentage of growth was evaluated spectrophotometrically versus controls not treated with test agents after 48-h exposure and using SRB protein assay to estimate cell viability or growth. […] Furthermore, mean graph midpoints (MG_MID) were calculated for each of the parameters, giving an average activity parameter over all cell lines for the tested compound. For the MG_MID calculation, insensitive cell lines were included with the highest concentration tested.

A549/ATCC = settings: 48 h; for Growth Percent: 10 μM
Method: as §1

BT-549 = settings: 48 h; for Growth Percent: BT-549, 10 μM
Method: as §1

CCRF-CEM = settings: 48 h; for Growth Percent: 10 μM
Method: as §1

DU-145 = settings: 48 h; for Growth Percent: DU-145, 10 μM
Method: as §1

HCC-2998 = settings: 48 h; for Growth Percent: HCC-2998, 10 μM
Method: as §1

HL-60(TB) = settings: 48 h; for Growth Percent: 10 μM
Method: as §1

HOP-62 = settings: 48 h; for Growth Percent: HOP-62, 10 μM
Method: as §1

HOP-92 = settings: 48 h; for Growth Percent: HOP-92, 10 μM
Method: as §1

HS 578T = settings: 48 h; for Growth Percent: 10 μM
Method: as §1

LOX IMVI = settings: 48 h; for Growth Percent: 10 μM
Method: as §1

M14 = settings: 48 h; for Growth Percent: M14, 10 μM
Method: as §1

MALME-3M = settings: 48 h; for Growth Percent: 10 μM
Method: as §1

MCF7 = settings: 48 h; for Growth Percent: MCF7, 10 μM
Method: as §1

MDA-MB-231/ATCC = settings: 48 h; for Growth Percent: 10 μM
Method: as §1

MOLT-4 = settings: 48 h; for Growth Percent: MOLT-4, 10 μM
Method: as §1

NCI-H226 = settings: 48 h; for Growth Percent: NCI-H226, 10 μM
Method: as §1

NCI-H23 = settings: 48 h; for Growth Percent: NCI-H23, 10 μM
Method: as §1

NCI-H322M = settings: 10 μM, 48 h
Method: as §1

NCI-H522 = settings: 48 h; for Growth Percent: NCI-H522, 10 μM
Method: as §1

NCI/ADR-RES = settings: 48 h; for Growth Percent: 10 μM
Method: as §1

OVCAR-3 = settings: 48 h; for Growth Percent: OVCAR-3, 10 μM
Method: as §1

OVCAR-4 = settings: 48 h; for Growth Percent: OVCAR-4, 10 μM
Method: as §1

OVCAR-5 = settings: 48 h; for Growth Percent: OVCAR-5, 10 μM
Method: as §1

PC-3 = settings: 48 h; for Growth Percent: PC-3, 10 μM
Method: as §1

RPMI-8226 = settings: 48 h; for Growth Percent: RPMI-8226, 10 μM
Method: as §1

RXF 393 = settings: 48 h; for Growth Percent: RXF 393, 10 μM
Method: as §1

SF-295 = settings: 48 h; for Growth Percent: SF-295, 10 μM
Method: as §1

SK-MEL-28 = settings: 48 h; for Growth Percent: SK-MEL-28, 10 μM
Method: as §1

SK-MEL-5 = settings: 48 h; for Growth Percent: SK-MEL-5, 10 μM
Method: as §1

SN12C = settings: 48 h; for Growth Percent: 10 μM
Method: as §1

SNB-19 = settings: 48 h; for Growth Percent: SNB-19, 10 μM
Method: as §1

SNB-75 = settings: 48 h; for Growth Percent: SNB-75, 10 μM
Method: as §1

SW-620 = settings: 48 h; for Growth Percent: SW-620, 10 μM
Method: as §1

T-47D = settings: 48 h; for Growth Percent: T-47D, 10 μM
Method: as §1

TK-10 = settings: TK-10, 10 μM, 48 h
Method: as §1

UACC-257 = settings: 48 h; for Growth Percent: UACC-257, 10 μM
Method: as §1

UACC-62 = settings: 48 h; for Growth Percent: UACC-62, 10 μM
Method: as §1

UO-31 = settings: 48 h; for Growth Percent: UO-31, 10 μM
Method: as §1

A498 = settings: 48 h
Method: as §1

[1] = Homo sapiens, five dose 0.01–100 μM

CC(=O)O[C@H]1CC[C@]2(C)[C@H]3CC[C@@H]4[C@H]5[C@H](C)[C@@]6(C)OC[C@]5(CC[C@@]4(C)[C@]3(C)CC[C@H]2C1(C)C)CC6C(C)=O (stereo partly drawn) [Compound 1]
Growth Percent (786-0): 97.17% | Growth Percent (A549/ATCC): 88.63% | Growth Percent (BT-549): 96.17% | Growth Percent (CCRF-CEM): 64.97% | Growth Percent (DU-145): 99.41% | Growth Percent (HCC-2998): 92.22% | Growth Percent (HL-60(TB)): 39.32% | Growth Percent (HOP-62): 100.79% | Growth Percent (HOP-92): 70.21% | Growth Percent (HS 578T): 98.58% | Growth Percent (LOX IMVI): 58.17% | Growth Percent (M14): 74.76% | Growth Percent (MALME-3M): 81.27% | Growth Percent (MCF7): 56.74% | Growth Percent (MDA-MB-231/ATCC): 88.35% | Growth Percent (MOLT-4): 42.52% | Growth Percent (NCI-H226): 91.65% | Growth Percent (NCI-H23): 84.77% | Growth Percent (NCI-H322M): 95.70% | Growth Percent (NCI-H522): 75.59% | Growth Percent (NCI/ADR-RES): 96.25% | Growth Percent (OVCAR-3): 84.02% | Growth Percent (OVCAR-4): 75.77% | Growth Percent (OVCAR-5): 97.46% | Growth Percent (PC-3): 48.79% | Growth Percent (RPMI-8226): 47.53% | Growth Percent (RXF 393): 89.49% | Growth Percent (SF-295): 96.73% | Growth Percent (SK-MEL-28): 80.73% | Growth Percent (SK-MEL-5): 47.27% | Growth Percent (SN12C): 88.79% | Growth Percent (SNB-19): 88.73% | Growth Percent (SNB-75): 106.15% | Growth Percent (SW-620): 68.02% | Growth Percent (T-47D): 74.66% | Growth Percent (TK-10): 109.75% | Growth Percent (UACC-257): 84.73% | Growth Percent (UACC-62): 49.11% | Growth Percent (UO-31): 95.19%

C[C@H]1[C@@H]2[C@H]3CC[C@@H]4[C@@]5(C)CC[C@H](O)C(C)(C)[C@@H]5CC[C@@]4(C)[C@]3(C)CC[C@]23CO[C@@]1(C)C(C(=O)/C=C/c1cccnc1)C3 (stereo partly drawn) [Compound 4]
Growth Percent (786-0): 63.59% | Growth Percent (A498; A498, 10 μM): 72.89% | Growth Percent (A549/ATCC): 57.76% | Growth Percent (BT-549): 57.24% | Growth Percent (CCRF-CEM): 30.84% | Growth Percent (DU-145): 73.94% | Growth Percent (HCC-2998): 69.92% | Growth Percent (HL-60(TB)): 47.50% | Growth Percent (HOP-62): 81.73% | Growth Percent (HOP-92): 79.10% | Growth Percent (HS 578T): 81.98% | Growth Percent (LOX IMVI): 51.47% | Growth Percent (M14): 60.79% | Growth Percent (MALME-3M): 54.41% | Growth Percent (MCF7): 23.65% | Growth Percent (MDA-MB-231/ATCC): 82.10% | Growth Percent (MOLT-4): 25.21% | Growth Percent (NCI-H226): 76.56% | Growth Percent (NCI-H23): 59.51% | Growth Percent (NCI-H322M): 88.41% | Growth Percent (NCI-H522): 37.96% | Growth Percent (NCI/ADR-RES): 78.87% | Growth Percent (OVCAR-3): 46.73% | Growth Percent (OVCAR-4): 49.03% | Growth Percent (OVCAR-5): 120.62% | Growth Percent (PC-3): 21.26% | Growth Percent (RPMI-8226): 9.55% | Growth Percent (RXF 393): 75.20% | Growth Percent (SF-295): 79.88% | Growth Percent (SK-MEL-28): 66.23% | Growth Percent (SK-MEL-5): 37.02% | Growth Percent (SN12C): 62.68% | Growth Percent (SNB-19): 71.61% | Growth Percent (SNB-75): 72.76% | Growth Percent (SW-620): 32.25% | Growth Percent (T-47D): 30.20% | Growth Percent (TK-10): 31.89% | Growth Percent (UACC-257): 49.29% | Growth Percent (UACC-62): 41.49% | Growth Percent (UO-31): 58.69%

COc1cccc2c1C(=O)c1c(O)c3c(c(O)c1C2=O)C[C@@](O)(C(=O)CO)C[C@@H]3O[C@H]1C[C@H](N)[C@H](O)[C@H](C)O1 [Doxorubicin, reference compound]
GI50 (786-0; Homo sapiens, 786-0, five dose 0.01–100 μM): 130 nM | GI50 (A498; Homo sapiens, A498, five dose 0.01–100 μM): 100 nM | GI50 (A549/ATCC; [1]): 60 nM | GI50 (BT-549; Homo sapiens, BT-549, five dose 0.01–100 μM): 230 nM | GI50 (CCRF-CEM; [1]): 80 nM | GI50 (DU-145; Homo sapiens, DU-145, five dose 0.01–100 μM): 110 nM | GI50 (HCC-2998; Homo sapiens, HCC-2998, five dose 0.01–100 μM): 260 nM | GI50 (HL-60(TB); [1]): 120 nM | GI50 (HOP-62; Homo sapiens, HOP-62, five dose 0.01–100 μM): 70 nM | GI50 (HOP-92; Homo sapiens, HOP-92, five dose 0.01–100 μM): 100 nM | GI50 (HS 578T; [1]): 330 nM | GI50 (LOX IMVI; [1]): 70 nM | GI50 (M14; Homo sapiens, M14, five dose 0.01–100 μM): 180 nM | GI50 (MALME-3M; [1]): 120 nM | GI50 (MCF7; Homo sapiens, MCF7, five dose 0.01–100 μM): 30 nM | GI50 (MDA-MB-231/ATCC; [1]): 510 nM | GI50 (MOLT-4; Homo sapiens, MOLT-4, five dose 0.01–100 μM): 30 nM | GI50 (NCI-H226; Homo sapiens, NCI-H226, five dose 0.01–100 μM): 50 nM | GI50 (NCI-H23; Homo sapiens, NCI-H23, five dose 0.01–100 μM): 150 nM | GI50 (NCI-H522; Homo sapiens, NCI-H522, five dose 0.01–100 μM): 30 nM | GI50 (NCI/ADR-RES; [1]): 7160 nM | GI50 (OVCAR-3; Homo sapiens, OVCAR-3, five dose 0.01–100 μM): 390 nM | GI50 (OVCAR-4; Homo sapiens, OVCAR-4, five dose 0.01–100 μM): 370 nM | GI50 (OVCAR-5; Homo sapiens, OVCAR-5, five dose 0.01–100 μM): 410 nM | GI50 (PC-3; Homo sapiens, PC-3, five dose 0.01–100 μM): 320 nM | GI50 (RPMI-8226; Homo sapiens, RPMI-8226, five dose 0.01–100 μM): 80 nM | GI50 (RXF 393; Homo sapiens, RXF 393, five dose 0.01–100 μM): 100 nM | GI50 (SF-295; Homo sapiens, SF-295, five dose 0.01–100 μM): 100 nM | GI50 (SK-MEL-28; Homo sapiens, SK-MEL-28, five dose 0.01–100 μM): 210 nM | GI50 (SK-MEL-5; Homo sapiens, SK-MEL-5, five dose 0.01–100 μM): 80 nM | GI50 (SN12C; [1]): 70 nM | GI50 (SNB-19; Homo sapiens, SNB-19, five dose 0.01–100 μM): 40 nM | GI50 (SNB-75; Homo sapiens, SNB-75, five dose 0.01–100 μM): 70 nM | GI50 (SW-620; Homo sapiens, SW-620, five dose 0.01–100 μM): 90 nM | GI50 (T-47D; Homo sapiens, T47D, T -47D, five dose 0.01–100 μM): 60 nM | GI50 (UACC-257; Homo sapiens, UACC-257, five dose 0.01–100 μM): 140 nM | GI50 (UACC-62; Homo sapiens, UACC-62, five dose 0.01–100 μM): 120 nM | GI50 (UO-31; Homo sapiens, UO-31, five dose 0.01–100 μM): 490 nM
